One series can be described thus: in vitro. Format: in vitro ADME, human. The settings on record: for microsomal clearance / stability (in words): human microsomes; for CLint scaled at 0.5 µM: human, microsomes, pH 7.4, human Clint. As to the method:
Compounds (0.5 µM) were incubated with 0.25 mg/mL liver microsomal proteins at pH 7.4 at 37 °C. Reactions were initiated with […] and samples taken at 0, 5, 10, 15, 20 and 30 min. The reaction was stopped by addition of 95% ACN/5% MeOH containing an internal standard. Samples were combined in compound groups of six pre-sorted by mono molecular weight and analyzed by LC/MS/MS. The peak area ratios (analyte peak area/IS peak area) were converted to % remaining using the area ratio at time 0 as 100%. The. half-life (T ½) and intrinsic clearance (mCLint) were calculated.

The test system of series [1] is wild-type M. tuberculosis. The experiment in a line: microbe, parasite or virus in culture. Type of series: cell-based, Mycobacterium tuberculosis.
Where [2] appears, read: Mycobacterium tuberculosis, 120 h, read-out: MIC.
Where [3] appears, read: Mycobacterium tuberculosis, read-out: MIC.
Setting [4] is: Mycobacterium tuberculosis, Table 5, read-out: Wild-type MIC.

≈ marks a conversion by molar mass, not a printed value. Where a name gives a salt, the structure may show the parent alone. Read-outs that look alike come from different tables or passages of the source.

As for `O=C(NCCc1cccc(C(F)(F)F)c1)C1(c2ccc(F)cc2)CCC1` [PCB-30, 1-(4-fluorophenyl)-N-(3-(trifluoromethyl)phenethyl)cyclobutane-1-carboxamide], in “in vitro”, the “microsomal clearance / stability (in words)” value was “significantly improved clearance” and the intrinsic clearance (CLint scaled) (commonly the capacity of the preparation to metabolise the compound, expressed as a volume cleared per time) at 0.5 µM is 121 L/h/kg. In addition, in series [1], the “anti-tubercular activity (in words)” value is “slight reduction in activity”. Also, in series [1] (setting [2]), the MIC is 0.99 ± 0.3 µM (≈ 0.362 µg/mL).
As to `O=C(NCCc1cccc(Br)c1)C1(c2ccccc2)CC(F)(F)C1` [PCB-24, N-(3-bromophenethyl)-3,3-difluoro-1-phenylcyclobutane-1-carboxamide], the “microsomal clearance / stability (in words)” value in “in vitro” was “poor microsomal stability”. The CLint scaled at 0.5 µM in “in vitro” is 263 L/h/kg. The MIC in series [1] (setting [2]) was found to be 15 ± 3.7 µM (≈ 5.91 µg/mL); in series [1] (setting [3]), 15 µM (≈ 5.91 µg/mL).
The corresponding values for `O=C(NCCc1cc(Br)ccn1)C1(c2ccccc2)CCC1` [PCB-8, N-(2-(4-bromopyridin-2-yl)ethyl)-1-phenylcyclobutane-1-carboxamide] are “improved clearance”, 69.7 L/h/kg, above 20 µM and above 20 µM.
On to `O=C(CNC(=O)C1(c2ccccc2)CCC1)c1cccc(Br)c1` [PCB-12, N-(2-(3-bromophenyl)-2-oxoethyl)-1-phenylcyclobutane-1-carboxamide], for which, in the series “in vitro”, the “microsomal clearance / stability (in words)” value is “did not improve clearance” and the CLint scaled at 0.5 µM was 47.3 L/h/kg. Besides, the “anti-tubercular activity (in words)” value in series [1] is “tolerated”. Also, the MIC in series [1] (setting [2]) was found to be 7.3 ± 0.3 µM (≈ 2.72 µg/mL).
As for `O=C(NCCc1cccc(Br)c1)C1(c2ccccc2)COC1` [PCB-25, N-(3-bromophenethyl)-3-phenyloxetane-3-carboxamide], in the series “in vitro”, the “microsomal clearance / stability (in words)” value is on record as “some improvement in clearance” and the CLint scaled at 0.5 µM was 20 L/h/kg. For the same compound, the MIC in series [1] (setting [2]) was 12 ± 2.8 µM (≈ 4.32 µg/mL). Further, the MIC in series [1] (setting [3]) is 12 µM (≈ 4.32 µg/mL).
Consider `O=C(NCCc1cccc(Br)c1)C1(c2ccccc2Cl)CCC1` [PCB-17, N-(3-bromophenethyl)-1-(2-chlorophenyl)cyclobutane-1-carboxamide], for which the “microsomal clearance / stability (in words)” value in “in vitro” is reported as “clearances increased”. This compound showed a CLint scaled at 0.5 µM in “in vitro” of 673 L/h/kg. The “anti-tubercular activity (in words)” value in series [1] is on record as “increase in activity”. The MIC turned out to be 1.8 ± 0.7 µM (≈ 0.707 µg/mL) in series [1] (setting [2]) and 1.8 µM (≈ 0.707 µg/mL) in series [1] (setting [4]).
As to `O=C(NCCc1cccc(C(F)(F)F)c1)C1(c2ccccc2)CCC1` [PCB-7, 1-phenyl-N-(3-(trifluoromethyl)phenethyl)cyclobutane-1-carboxamide], in “in vitro”, the “microsomal clearance / stability (in words)” value was “increased clearance” and the CLint scaled at 0.5 µM is 270 L/h/kg. The MIC in series [1] (setting [2]) was 3.7 ± 2.7 µM (≈ 1.29 µg/mL). The MIC in series [1] (setting [3]) worked out at 3.7 µM (≈ 1.29 µg/mL).
Consider `O=C(NCCc1cccc(Br)c1)C1(c2ccccc2)CCC1` [PCB-5, N-(3-bromophenethyl)-1-phenylcyclobutane-1-carboxamide], for which the CLint scaled at 0.5 µM in the series “in vitro” was 236 L/h/kg. Further, the figures for the MIC in series [1] (setting [2]) and in series [1] (setting [3]) were 4.9 ± 1.7 µM (≈ 1.76 µg/mL) and 4.9 µM (≈ 1.76 µg/mL), respectively.
With `Cc1ccccc1C1(C(=O)NCCc2cccc(C(F)(F)F)c2)CCC1` [PCB-29, 1-(o-tolyl)-N-(3-(trifluoromethyl)phenethyl)cyclobutane-1-carboxamide], the “microsomal clearance / stability (in words)” value in “in vitro” is “increase in clearance”. The compound further showed an intrinsic clearance (CLint scaled) at 0.5 µM in the series “in vitro” of 883 L/h/kg. The MIC came out at 0.45 ± 0.01 µM (≈ 0.163 µg/mL) in series [1] (setting [2]) and 0.45 µM (≈ 0.163 µg/mL) in series [1] (setting [3]).
The corresponding values for `COc1ccc(CCNC(=O)C2(c3ccc(F)cc3)CCC2)cc1Br` [PCB-26, N-(3-bromo-4-methoxyphenethyl)-1-(4-fluorophenyl)cyclobutane-1-carboxamide] are “at the expense of clearance”, 149 L/h/kg, 2.8 ± 0.1 µM (≈ 1.14 µg/mL) and 2.8 µM (≈ 1.14 µg/mL).
As for `O=C(NCCc1ccc2c(c1)OCO2)C1(c2ccccc2)CCC1` [PCB-4, N-(2-(benzo[d][1,3]dioxol-5-yl)ethyl)-1-phenylcyclobutane-1-carboxamide], in “in vitro”, the “microsomal clearance / stability (in words)” value is recorded as “intermediate clearance” and the CLint scaled at 0.5 µM is 52.1 L/h/kg. For the same compound, the “anti-tubercular activity (in words)” value in series [1] was “retained anti-tubercular activity”. In addition, the MIC in series [1] (setting [2]) was 12 ± 2.6 µM (≈ 3.88 µg/mL).
`O=C(NCCc1cccc(Br)c1)C1(c2ccccc2C(F)(F)F)CCC1` [PCB-22, N-(3-bromophenethyl)-1-(2-(trifluoromethyl)phenyl)cyclobutane-1-carboxamide] had a CLint scaled at 0.5 µM in “in vitro” of 975 L/h/kg. For the same compound, the MIC in series [1] (setting [2]) turned out to be 5.7 ± 2.8 µM (≈ 2.43 µg/mL).
With `O=C(NCC(O)c1ccc2c(c1)OCO2)C1(c2ccccc2)CCC1` (stereo not shown) [PCB-11, N-(2-(benzo[d][1,3]dioxol-5-yl)-2-hydroxyethyl)-1-phenylcyclobutane-1-carboxamide], the “microsomal clearance / stability (in words)” value in “in vitro” is given as “lower clearance”. The CLint scaled at 0.5 µM in the series “in vitro” is 9.66 L/h/kg. In addition, the MIC in series [1] (setting [2]) and in series [1] (setting [3]) was above 20 µM throughout.
Take `Cc1ccccc1C1(C(=O)NCCc2cccc(Br)c2)CCC1` [PCB-23, N-(3-bromophenethyl)-1-(o-tolyl)cyclobutane-1-carboxamide]: the CLint scaled at 0.5 µM in the series “in vitro” was 391 L/h/kg. Also, the MIC in series [1] (setting [2]) was determined as 1.3 ± 0.5 µM (≈ 0.484 µg/mL); in series [1] (setting [4]), 1.3 µM (≈ 0.484 µg/mL); in series [1] (setting [3]) it was 1.3 µM (≈ 0.484 µg/mL).
On to `O=C(NCCc1cccc(Br)c1)C1(c2ccc(Cl)cc2Cl)CCC1` [PCB-18, N-(3-bromophenethyl)-1-(2,4-dichlorophenyl)cyclobutane-1-carboxamide], for which, in the series “in vitro”, the “microsomal clearance / stability (in words)” value is “very low stability” and the CLint scaled at 0.5 µM is 1690 L/h/kg. The “anti-tubercular activity (in words)” value in series [1] is “low antitubercular activity”. Besides, the MIC in series [1] (setting [2]) turned out to be 13 ± 5 µM (≈ 5.55 µg/mL).
Regarding `CC(C)(C)CC(C)(C)N1CCC(c2ccc(C(C)(C)C)cc2)CC1` [Molecule 4PP-43, 4-(4-t-Butyl-phenyl)-1-(1,1,3,3-tetramethyl-butyl)-piperidine], the MIC in series [1] was 5.2 ± 1.9 µM (≈ 1.71 µg/mL); in series [1] (setting [2]) it was 5.9 µM (≈ 1.94 µg/mL).
`c1ccc(C2CCN(CC3CCCCC3)CC2)cc1` [Molecule 4PP-4, 1-Cyclohexylmethyl-4-phenyl-piperidine]: the MIC in series [1] (setting [2]) is 21 ± 9 µM (≈ 5.41 µg/mL); in series [1] (setting [3]), 21 µM (≈ 5.41 µg/mL).
As to `c1ccc(C2CCN(Cc3ccc4c(c3)OCO4)CC2)cc1` [Molecule 4PP-42, 1-(Benzo[d][1,3]dioxol-5-ylmethyl)-4-phenylpiperidine], the “anti-tubercular activity (in words)” value in series [1] was “inactive”. In addition, the MIC in series [1] (setting [2]) is above 20 µM.
For `CC(C)(C)CC(C)(C)N1CCC(c2c[nH]c3ncccc23)CC1` [Molecule 4PP-46, 3-(1-(2,4,4-Trimethylpentan-2-yl)piperidin-4-yl)-1H-pyrrolo[2,3-b]pyridine], in that order: “inactive” and above 20 µM.
Take `O=C(NCCc1ccc(Br)cc1)C1(c2ccccc2)CCC1` [PCB-6, N-(4-bromophenethyl)-1-phenylcyclobutane-1-carboxamide]: the CLint scaled at 0.5 µM in “in vitro” is 35.6 L/h/kg. Further, the MIC in series [1] (setting [2]) amounted to 5.4 ± 0.3 µM (≈ 1.93 µg/mL); in series [1] (setting [3]) it was 5.4 µM (≈ 1.93 µg/mL).
As for `CC(C)(C)CC(C)(C)N1CC=C(c2c[nH]c3ccccc23)CC1` [Molecule 4PP-47, 3-(1-(2,4,4-Trimethylpentan-2-yl)-1,2,3,6-tetrahydropyridin-4-yl)-1H-indole], the MIC was found to be 9.6 ± 2.2 µM (≈ 2.98 µg/mL) in series [1] (setting [2]) and 9.6 µM (≈ 2.98 µg/mL) in series [1] (setting [3]).
The corresponding values for `CC(C)(C)CC(C)(C)N1CCC(c2c[nH]c3ccccc23)CC1` [Molecule 4PP-48, 3-(1-(2,4,4-Trimethylpentan-2-yl)piperidin-4-yl)-1H-indole] are 1.6 µM (≈ 0.5 µg/mL) and 1.6 µM (≈ 0.5 µg/mL).
For the compound `CC(C)(C)c1ccc(C2CCN(S(=O)(=O)C3CCCCC3)CC2)cc1` [Molecule 4PP-5, 4-(4-(t-Butyl)phenyl)-1-(cyclohexylsulfonyl)piperidine], the “anti-tubercular activity (in words)” value in series [1] is given as “lost whole-cell activity”. Also, the MIC in series [1] (setting [2]) was above 20 µM.
`CN(CCc1cccc(Br)c1)C(=O)C1(c2ccccc2)CCC1` [PCB-14, N-(3-bromophenethyl)-N-methyl-1-phenylcyclobutane-1-carboxamide]: in the series “in vitro”, the “microsomal clearance / stability (in words)” value is reported as “highly metabolized” and the CLint scaled at 0.5 µM is 447 L/h/kg. Moreover, the “anti-tubercular activity (in words)” value in series [1] was “inactive”. The MIC in series [1] (setting [2]) was above 20 µM.
For the compound `CC1C(CNC(=O)Nc2ccccc2)CC2CC1C2(C)C` (stereo not shown) [HBU-2], the IC90 (as a rule, the point of the concentration-response curve where the effect stands at 90%) in series [1] (Mycobacterium tuberculosis) is 4.9 µM.
Turning to `CC(C)(C)c1ccc(C2CCN(C3CCCCC3)CC2)cc1` [Molecule 4PP-16, 4-(4-t-Butyl-phenyl)-1-cyclohexyl-piperidine, hydrochloride], the MIC in series [1] (setting [2]) was found to be 2.7 ± 0.8 µM; in series [1] (setting [3]) it was 2.7 µM.
Consider `O=C(NC1CCCCC1)N1CCC(c2ccccc2)CC1` [Molecule 4PP-13, N-cyclohexyl-4-phenylpiperidine-1-carboxamide], for which the “anti-tubercular activity (in words)” value in series [1] is reported as “did not furnish activity”. Besides, in series [1] (setting [2]), the MIC was above 20 µM.
For `CN(C)C1CCC(N2CCC(c3ccccc3)CC2)CC1` (stereo not shown) [Molecule 4PP-21, N,N-dimethyl-4-(4-phenylpiperidin-1-yl)cyclohexan-1-amine], in that order: “loss of activity” and above 20 µM.
The corresponding values for `N#Cc1ccc(C2CCN(CC3CCCCC3)CC2)cc1.O=C(O)C(F)(F)F` [Molecule 4PP-30, 4-[1-(Cyclohexylmethyl)-4-piperidyl]benzonitrile; 2,2,2-trifluoroacetic acid] are “inactive” and above 20 µM.
The corresponding values for `CC(C)(C)c1ccc(C2CCN(C(=O)N3CCCCC3)CC2)cc1` [Molecule 4PP-8, (4-(4-(t-Butyl)phenyl)piperidin-1-yl)(piperidin-1-yl)methanone] are “loss of activity” and above 20 µM.
Regarding `COc1ccc(-c2cc(N)nc(-n3nc(C)cc3C)n2)cc1` [PZP-1], it took 5.2 µM to reach the 90% level in series [1] (Mycobacterium tuberculosis) (IC90).

The record behind these values is publication PMC9435431, “Novel chemical entities inhibiting Mycobacterium tuberculosis growth identified by phenotypic high-throughput screening” (Scientific Reports, 2022).
